# Assay results from patent publication US20110117055A1, “Methods of Treating Hepatitis C Virus with Oxoacetamide Compounds” (priority 2009, published 2011).
# “Also recorded” adds a separate entry of the source.
# Test system: HCV2aChLuc (NS3:A156S)
# Experiment: Infectivity of protease mutant virus versus wild type in the presence of compounds
# Type: cell-based, HCV genotype 2a
# Conditions: HCV2aChLuc (NS3:A156S) vs wild type HCV2aChLuc
# From the text: Therefore, we introduced A156S mutation in the backbone of HCV2aChLuc genome and investigated the infectivity of the mutant virus in the presence of compounds.
row,SMILES,resistance of NS3:A156S mutant virus versus wild type (inhibition of infectivity)
1,"CCC[C@H](NC(=O)[C@@H]1[C@H]2CCC[C@H]2CN1C(=O)[C@@H](NC(=O)[C@@H](NC(=O)c1cnccn1)C1CCCCC1)C(C)(C)C)C(=O)C(=O)NC1CC1 [VX-950, reference compound]",high level resistance; also recorded: resistant

# Same assay, conditions: HCV2aChLuc (NS3:A156S) vs wild type HCV2aChLuc; listed as VX950
row,SMILES,resistance of NS3:A156S mutant virus versus wild type (inhibition of infectivity)
1,"CCC[C@H](NC(=O)[C@@H]1[C@H]2CCC[C@H]2CN1C(=O)[C@@H](NC(=O)[C@@H](NC(=O)c1cnccn1)C1CCCCC1)C(C)(C)C)C(=O)C(=O)NC1CC1 [VX-950, reference compound]",highly resistant

# Test system: HCV2aChLuc virus
# Experiment: In vitro HCVcc entry assay: HCV2aChLuc virus infection of Huh7 cells, Renilla luciferase read-out
# Type: cell-based, HCV genotype 2a
# Conditions: Hepatitis C virus, Huh-7, read-out: Activity class (IC50), tested according to the method of Example 3
row,SMILES,IC50 [nM]
1,CCCS(=O)(=O)Nc1cc(C(C)(C)C)cc(NC(=O)C(=O)c2ccc(OCC(=O)c3ccc(OC)cc3)c3ccccc23)c1OC [Compound 84],> 500
2,COc1c(NC(=O)C(=O)c2ccc(OCC(N)=O)c3ccccc23)cc(C(C)(C)C)cc1NS(C)(=O)=O [Compound 85],> 500
3,COCCOCCOc1ccc(C(=O)C(=O)Nc2cc(C(C)(C)C)cc(NS(C)(=O)=O)c2OC)c2ccccc12 [Compound 86],> 500
4,CCCS(=O)(=O)Nc1cc(C(C)(C)C)cc(NC(=O)C(=O)c2ccc(N3CCC(CC(=O)OCC)CC3)c3ccccc23)c1OC [Compound 87],> 500
5,CC(C)(C)c1cc(C#N)cc(NC(=O)C(=O)c2ccc(Br)c3ccccc23)c1 [Compound 88],> 500
6,COc1c(Br)cc(C(C)(C)C)cc1NC(=O)C(=O)c1ccc(OCCN2CCOCC2)c2ccccc12 [Compound 89],5 to 500
7,O=C(Nc1ccc2c(c1)OCCO2)C(=O)c1ccc(OCCN2CCOCC2)c2ccccc12 [Compound 90],> 500
8,COc1c(NC(=O)C(=O)c2ccc(OCCN3CCOCC3)c3ccccc23)cc(C(C)(C)C)cc1-c1nnn[nH]1 [Compound 91],> 500
9,COc1c(NC(=O)C(=O)c2ccc(OCC[N+]3([O-])CCOCC3)c3ccccc23)cc(C(C)(C)C)cc1NS(C)(=O)=O [Compound 92],5 to 500
10,COc1c(NC(=O)C(=O)c2ccc(OCCN(CCOCc3ccccc3)CCOCc3ccccc3)c3ccccc23)cc(C(C)(C)C)cc1NS(C)(=O)=O [Compound 93],> 500
11,COc1c(C#N)cc(C(C)(C)C)cc1NC(=O)C(=O)c1ccc(-c2ccc(NCCC(C)(C)C)nc2)c2ccccc12 [Compound 94],> 500
12,COc1c(C#N)cc(C(C)(C)C)cc1NC(=O)C(=O)c1ccc(Nc2ccnc(N3CCCC3)n2)c2ccccc12 [Compound 95],> 500
13,COc1c(NC(=O)C(=O)c2ccc(OCCN3CC(C)(C)OC(C)(C)C3)c3ccccc23)cc(C(C)(C)C)cc1NS(C)(=O)=O [Compound 96],5 to 500
14,COc1c(NC(=O)C(=O)c2ccc(OCCN3CCOCC3)c3ccccc23)cc(C(C)(C)C)cc1C(=O)N1CCNCC1 [Compound 97],> 500
15,COc1c(NC(=O)C(=O)c2ccc(OCCN3CCOCC3)c3ccccc23)cc(C(C)(C)C)cc1C(=O)N1CCN(C)CC1 [Compound 98],> 500
16,COc1c(NC(=O)C(=O)c2ccc(OCCN3CCOCC3)c3ccccc23)cc(C(C)(C)C)cc1C(=O)N1CCN(C(C)C)CC1 [Compound 99],5 to 500
17,COc1c(NC(=O)C(=O)c2ccc(OCCN3CCOCC3)c3ccccc23)cc(C(C)(C)C)cc1C(=O)N1CCN(CC2CC2)CC1 [Compound 100],> 500
18,COc1c(NC(=O)C(=O)c2ccc(OCCN3CCOCC3)c3ccccc23)cc(C(C)(C)C)cc1C(=O)N1CCN(CCO)CC1 [Compound 101],> 500
19,COc1c(NC(=O)C(=O)c2ccc(OCCN3CCOCC3)c3ccccc23)cc(C(C)(C)C)cc1C(=O)N1CCCN(C)CC1 [Compound 102],> 500
20,COc1c(NC(=O)C(=O)c2ccc(OCCN3CCOCC3)c3ccccc23)cc(C(C)(C)C)cc1C(=O)NC1CCN(C)CC1 [Compound 103],> 500
21,COc1c(NC(=O)C(=O)c2ccc(OCCN3CCOCC3)c3ccccc23)cc(C(C)(C)C)cc1C(=O)N1CC2CCC(C1)N2 [Compound 104],> 500
22,COc1c(NC(=O)C(=O)c2ccc(OCCN3CCOCC3)c3ccccc23)cc(C(C)(C)C)cc1C(=O)NC1CCNCC1 [Compound 105],> 500
23,COc1c(NC(=O)C(=O)c2ccc(OCCN3CCOCC3)c3ccccc23)cc(C(C)(C)C)cc1C(=O)N1CCCCC1CN(C)C (stereo not shown) [Compound 106],> 500
24,COc1c(NC(=O)C(=O)c2ccc(OCCN3CCOCC3)c3ccccc23)cc(C(C)(C)C)cc1-n1ccnc1 [Compound 107],5 to 500
25,COc1c(NC(=O)C(=O)c2ccc(OCCN3CCOCC3)c3ccccc23)cc(C(C)(C)C)cc1-n1ccnn1 [Compound 108],5 to 500
26,CC(C)(C)c1cc(NC(=O)C(=O)c2ccc(OCCN3CCOCC3)c3ccccc23)cc(NS(C)(=O)=O)c1 [Compound 109],5 to 500
27,COc1c(NC(=O)C(=O)c2ccc(OCCN3CCOCC3)c3ccccc23)cccc1NS(C)(=O)=O [Compound 110],> 500

row,SMILES,IC50 [nM]
1,COc1c(NC(=O)C(=O)c2ccc(OCCN3CCCCC3)c3ccccc23)cc(C(C)(C)C)cc1NS(C)(=O)=O [Compound 111],5 to 500
2,Cc1ccc(Cl)cc1NC(=O)C(=O)c1ccc(OCCN2CCOCC2)c2ccccc12 [Compound 112],> 500
3,O=C(Nc1n[nH]c2ccccc12)C(=O)c1ccc(OCCN2CCOCC2)c2ccccc12 [Compound 113],> 500
4,O=C(NC1Cc2ccccc2C1)C(=O)c1ccc(OCCN2CCOCC2)c2ccccc12 [Compound 114],> 500
5,O=C(NC1CCc2ccccc21)C(=O)c1ccc(OCCN2CCOCC2)c2ccccc12 (stereo not shown) [Compound 115],> 500
6,COc1c(NC(=O)C(=O)c2ccc(OCCN3CCOCC3)c3ccccc23)cc(C(F)(F)F)cc1NS(C)(=O)=O [Compound 116],> 500
7,COc1c(NC(=O)C(=O)c2ccc(OCCN3CCOCC3)c3ccccc23)cc(C(C)(C)C)cc1N(CCN1CCOCC1)S(C)(=O)=O [Compound 117],> 500
8,O=C(Nc1nc(Cl)ccc1[N+](=O)[O-])C(=O)c1ccc(OCCN2CCOCC2)c2ccccc12 [Compound 118],> 500
9,O=C(Nc1cc(Br)cnc1Cl)C(=O)c1ccc(OCCN2CCOCC2)c2ccccc12 [Compound 119],5 to 500
10,COc1c(NC(=O)CCCCC2SCC3NC(=O)NC32)cc(C(C)(C)C)cc1NC(=O)C(=O)c1ccc(OCCN2CCOCC2)c2ccccc12 (stereo not shown) [Compound 120],5 to 500
11,COc1ccc(I)cc1NC(=O)C(=O)c1ccc(OCCN2CCOCC2)c2ccccc12 [Compound 121],5 to 500
12,CC(C)(C)c1ccc(O)c(NC(=O)C(=O)c2ccc(OCCN3CCOCC3)c3ccccc23)c1 [Compound 122],5 to 500
13,COc1c(NC(=O)C(=O)c2ccc(OCCCS(=O)(=O)N(C)C)c3ccccc23)cc(C(C)(C)C)cc1NS(C)(=O)=O [Compound 123],5 to 500
14,COc1c(NC(=O)C(=O)c2ccc(Nc3ccnc(N4CCOCC4)n3)c3ccccc23)cc(C(C)(C)C)cc1C(N)=O [Compound 124],> 500
15,COc1c(NC(=O)C(=O)c2ccc(-c3ccc(N(C)C)nc3)c3ccccc23)cc(C(C)(C)C)cc1NS(C)(=O)=O [Compound 125],> 500
16,COc1ccc(C(C)(C)C)cc1NC(=O)C(=O)c1ccc(-c2ccc(N(C)C)nc2)c2ccccc12 [Compound 126],> 500
17,COc1ccc(C(C)(C)C)cc1NC(=O)C(=O)c1ccc(-c2cccnc2)c2ccccc12 [Compound 127],> 500
18,COc1c(NC(=O)C(=O)c2ccc(Br)c3ccccc23)cc(C(C)(C)C)cc1NS(C)(=O)=O [Compound 128],> 500
19,CNc1ccc(-c2ccc(C(=O)C(=O)Nc3cc(C(C)(C)C)cc(C(=O)NC4CC4)c3OC)c3ccccc23)cn1 [Compound 130],> 500
20,CNc1ccc(-c2ccc(C(=O)C(=O)Nc3cc(C(C)(C)C)cc(NS(C)(=O)=O)c3OC)c3ccccc23)cn1 [Compound 131],> 500
21,COc1c(N)cc(C(C)(C)C)cc1NC(=O)C(=O)c1cccc2ccccc12 [Compound 132],> 500
22,COc1ccc(C(C)(C)C)cc1NC(=O)C(=O)c1ccc(Br)c2ccccc12 [Compound 134],5 to 500
23,COc1c(NC(=O)C(=O)c2ccc(Br)c3ccccc23)cc(C(C)(C)C)cc1C(=O)NC1CC1 [Compound 135],< 5
24,CNc1ccc(-c2ccc(C(=O)C(=O)Nc3cc(C(C)(C)C)ccc3OC)c3ccccc23)cn1 [Compound 136],< 5
25,CNc1ccc(-c2ccc(C(=O)C(=O)Nc3cc(C(C)(C)C)cc(C(N)=O)c3OC)c3ccccc23)cn1 [Compound 137],< 5
26,CCNC(=O)c1cc(C(C)(C)C)cc(NC(=O)C(=O)c2ccc(-c3ccc(NC)nc3)c3ccccc23)c1OC [Compound 138],< 5
